Structures can show the parent of a compound that is named as a salt.
System: human normal epidermal cells
Experiment: Production of skin irritation mediators in human three-dimensional epidermal culture model (LabCyte EPI-MODEL), ELISA
Type: cell-based
Description: There was used a human three-dimensional epidermal culture model in which human normal epidermal cells were multilayer-cultured (LabCyte EPI-MODEL, Japan Tissue Engineering Co., Ltd.). LabCyte is a cultured skin cultured in a transwell. For the experiment, LabCyte was used with the transwell.
A cholesterol (Wako Pure Chemical Industries, Ltd.) was used as a test article. Donepezil hydrochloride was used as the drug. Olive oil (Wako Pure Chemical Industries, Ltd.) was used as a vehicle.
Tests were conducted by the following group composition. • Drug Alone Group: A group with addition of 4×10^−4 M of donepezil hydrochloride alone dispersed in a vehicle, as a test solution. • Cholesterol Addition Group: A group with addition of 4×10^−4 M of donepezil hydrochloride and 1% by mass of cholesterol which were dispersed in a vehicle, as a test solution.
The test solutions of each group were added to the cells, the culture after being incubated for 48 hours were collected, and the production amounts of skin irritation mediators were measured. PGE2, IL-1α, IL-6 and IL-8 were measured as the skin irritation mediators. The skin irritation mediators were measured by using a commercially available ELISA kit (R&D Systems, Inc.). The relative production amount of the skin irritation mediator in the Cholesterol Addition Group was calculated as below, when the production amount of the skin irritation mediators in Drug Alone Group was set to 100.
Relative production amount=(production amount of the mediator in Cholesterol Addition Group)/(production amount of the mediator in Drug Alone Group)×100

[1] = 4×10^−4 M donepezil hydrochloride + 1% by mass cholesterol in olive oil, 48 hours incubation

Compound	effect on production amounts of skin irritation mediators by donepezil hydrochloride (1% by mass cholesterol added to 4×10^−4 M donepezil hydrochloride, 48 hours)	relative production amount of skin irritation mediator IL-1α (drug alone group set to 100) [1]	relative production amount of skin irritation mediator IL-6 (drug alone group set to 100) [1]	relative production amount of skin irritation mediator IL-8 (drug alone group set to 100) [1]	relative production amount of skin irritation mediator PGE2 (drug alone group set to 100) [1]
CC(C)CCC[C@@H](C)[C@H]1CC[C@H]2[C@@H]3CC=C4C[C@@H](O)CC[C@]4(C)[C@H]3CC[C@]12C [cholesterol, (3β)-cholest-5-en-3-olcholest-5-en-3β-ol]	effects of decreasing the production amounts of skin irritation mediators	–	–	–	–
COc1cc2c(cc1OC)C(=O)C(CC1CCN(Cc3ccccc3)CC1)C2 (centres unmarked) [Donepezil hydrochloride, 2-[(1-benzyl-4-piperidinyl)methyl]-5,6-dimethoxyindane-1-on]	–	0	85	59	33
